Data taken from patent US10212958B2, “Method for producing stabilized whole wheat flour” (Intercontinental Great Brands LLC, priority 2011, dated 2019).
Values joined by “and” are separate entries in the source; they are usually repeats but may differ in a detail not shown here. Equal entries are not always repeated. Each block holds one compound with its values, some of them ahead of it.

Columns and labels:
[1] = system: Novozyme lipase from Aspergillus oryzae; assay: Titrimetric lipase activity after 40 min pre-incubation of the enzyme in acid solution; assay type: biochemical
Protocol: The objective of this example was to test the effect of acid type and concentration on the lipase activity after pre-incubation of the enzyme for 40 minutes in acid solution. The following acids and levels were tested; (1) 5 ml lactic acid (8 g/1000 ml pH 2.57), add 20 μl lipase and 980 μl water inhibition 40 min; (2) 5 ml lactic acid (2 g/1000 ml pH 2.85), add 20 μl lipase and 980 μl water inhibition 40 min; (3) 5 ml lactic acid (16 g/1000 ml pH 2.48), add 20 μl lipase and 980 μl water inhibition 40 min; (4) 5 ml acetic acid (1 g/1000 ml pH 2.80), add 20 μl lipase and 980 μl water inhibition 40 min; (5) 5 ml HCL (4 g/1000 ml, pH 1.5), add 20 μl lipase and 980 μl water inhibition 40 min; (6) 5 ml green tea extract (8 g/1000 ml), add 20 μl lipase and 980 μl water inhibition 40 min.
Lipase (3.1.1.3) activity was adapted from the method set forth in “Worthington, Von.; The Worthington Manual; 1993 from Worthington Biochemical Corporation, 730 Vassar Avenue, Lakewood, N.J. 08701”.
H. Olive oil-gum Arabic emulsion: Prepare by dissolving 16.5 grams of gum Arabic in 130 ml of reagent grade water. Once the material is in solution, dilute to a final volume of 165 ml with reagent grade water. Add 20 ml of reagent grade olive oil and 15 grams crushed ice. Blend the mixture in a Waring blender at low speed for 3 min and filter the emulsion through glass wool. Prepare fresh daily. Enzyme:
The titration can be measured with a laboratory pH meter (a Corning pH meter 360i equipped with A-58905-66 High-performance combination pH electrode).
Blank rate determination: Adjust the pH of the reaction mixture to 8.0 and record the volume of titrant required to maintain the pH at 8.0 for 3-4 minutes after a constant rate is achieved. Determine the “blank rate” as the volume of titrant added per minute from the final linear portion of the curve.
Sample determination: at zero time, add appropriately diluted enzyme and readjust the pH to 8.0 if necessary. Record the volume of titrant required to maintain the pH at 8.0 for 5-6 minutes. Determine the “sample rate” as the volume of titrant added per minute from the linear portion of the curve.

[2] = AACC 10-53 Cookie Test Baking; conditions: lactic acid 3000 ppm, green tea extract 7000 ppm
Text: AACC 10-53 Cookie Test Baking Method was designed at Nabisco Biscuit Company for evaluation of ingredient functionality and predictive correlation between sensory and mechanical texture analysis (mechanical texture analysis by TAXT2 Texture analyzer 3 point bend or puncture test). The test is an improvement over AACC 10-52 Sugar-Snap Cookie Test Baking Method as confirmed by USDA Soft Wheat Quality Lab (Wooster Ohio). The AACC 10-53 test was adopted as the official method of the American Association of Cereal Chemists after collaborative testing by the Soft Wheat Quality Committee in 1992. The equipment, cookie dough composition, mixing procedure, baking procedure, measurement procedure, etc. used in the test are: The Standard Formulation AACC 10-53 Single Batch to Make 4 Test Cookies is: [table] [table] The general mixing procedure used is: The baketime is defined as the time required to produce a weight loss of 13.85% during baking of the formulation at 400 F. Portion four 60 g pieces of dough with minimum deformation and place on cookie sheet. Lay rolling pin across gauge bars of cookie sheet allowing weight of pin to compress the dough pieces without additional compressive force. Pick up rolling pin and place on gauge bars at end of cookie sheet, and roll only once away from you. Cut cookies with 60 mm cutter, and carefully lift scrap dough with small spatula. […]

[3] = system: free fatty acids formed in whole grain flour; assay: Free fatty acid content of whole grain flour, fresh and after accelerated storage (SPE, GC-FID); set-up: species or system wheat
Protocol: The objective of this example was to test the effect of acid tempering on the stability of whole grain flour during storage. The amount of free fatty acid formed was measured after flour storage in a sealed glass jar for 30 days under accelerated storage conditions of 92° F. […] The flours tested were: […] Results were compared to the amount of free fatty acids formed in untreated control flour. Whole grain flours were made with natural proportion of bran component and endosperm obtained from the flour mill. Whole grain flour ash content was used to confirm composition. Free fatty acid content of whole grain flour (fresh flour and 30 days aged flour) was determined according to the following method: Free fatty acid content of the flours was adapted from the method set forth in “Jong, C.; Badings, H. T.; Journal of High Resolution Chromatography; 1990; Determination of Free Fatty Acids in Milk and Cheese Procedures for Extraction, Clean up, and Capillary Gas Chromatography Analysis”. Lipid extracts, containing free fatty acids, are obtained from foods by extraction with acidified organic solvents. The anhydrous lipid extracts are passed through a weak anion exchange SPE cartridge to isolate the free fatty acids from the coextracted material, particularly neutral glycerides. • a. […] HP5890 Series II] • b. Autosampler compatible with the GC, [example: HP7673] • c. Software system capable of collecting chromatographic data, calculating statistics and tabulating results • d. Analytical balance with 0.0001 g resolution, 150 g capacity • e. Centrifuge capable of 3000 rpm (2050 rcf), with temperature control, (optional) • f. Polytron able to homogenize samples at 25000 rpm [example: Brinkmann Instruments, Polytron Kinematica AG Model PT 1300 D] • g. Vortex Mixer • h. Solvent Dispensers with inert plastic components [example: […] Column: […] SPE cartridges: […] Glass centrifuge test tubes with teflon lined screw caps, size: 16×125 mm • 4. Corex glass centrifuge tubes with teflon lined screw caps, 45 mL [example: COREX II No. 8422-A] • 5. Whatman Filter paper #1, 125 mm Diameter • 6. Pyrex brand filtering funnel, short stem • 7. Disposable Culture Tubes, borosilicate glass 16×150 mm [example: VWR Cat #47729-580] • 8. Glass vials with teflon lined screw caps, 4 mL. [example: Kimble Cat #60940A 4] • 9. Autosampler vials, borosilicate glass, crimp-top with teflon lined caps • 10. Amber borosilicate bottles with teflon lined screw cap, 100 mL • 11. Clear borosilicate bottle with teflon lined screw cap, 250 mL • 12. Graduated cylinders: 250 mL, 100 mL • 13. […] Glass volumetric pipettes class A 5, 2, 1 mL and graduated 10, 5 mL • 15. Disposable Pasteur pipettes: 53⁄4 and 9 inch • 16. Microspatula, spatula, and polypropylene sample transfer tubes Reagents/Solutions Reagents and Standards • 1. Ethanol-200 proof, anhydrous, 99.5%+, stored in amber glass [Aldrich #45, 983-6 or equivalent] • 2. Hexanes-GC grade [B&J #216-4 or equivalent] • 3. iso-Propanol-GC grade [B&J #323-4 or equivalent] • 4. Methyl-tert-butylether (MTBE)-GC grade [B&J #242-4 or equivalent] • 5. Methylene chloride-GC grade [B&J #299-4 or equivalent] • 6. […] Sulfuric acid-ACS reagent, 95.0-98.0% [Fisher Reagent ACS #A800-500 or equivalent] • 8. Water Type 1 [Fisher HPLC #W5-4 or equivalent] • 9. Diatomaceous Earth [Leco part #502-327 or equivalent] • 10. […] Standards (Standard Preparation See Appendix 13.1) • a. Internal Standard: 11:0; Surrogates: 9:0 and 13:0 • b. Matrix Spike (MS) standard working solution in ethanol: MS @ 50 µg/mL. This level may be appropriate for low to mid-level determinations. Generally the FFA levels vary tremendously within a given matrix. Consequently a spike solution of varying amounts per individual FFA may be necessary per matrix. • c. Calibration Standards in hexanes establish linear range: […] Comment: 18:1 and 18:2 calculations are based on 18:0 response factor. • d. […]

[4] = Whole grain flour pH in 10% slurry; assay type: physicochemical
[5] = Flour moisture (AACC Method 44-15A); assay type: physicochemical; conditions: coarse bran fraction before recombining
Protocol: Whole grain flour pH was measured in a 10% slurry (one part flour to 9 part water) using a Corning pH meter 360i equipped with an A-58905-66 High-performance combination pH electrode. Ash is determined according to AOAC official method 923.03 for measuring ash in flour. Flour moisture was determined according to AACC Method 44-15A.

[6] = Solvent Retention Capacity (SRC) of flour, adapted from AACC 56-10; assay type: physicochemical; set-up: Flour SRC sucrose / Flour SRC Sodium carbonate / Flour SRC Lactic acid / Flour SRC Water: unit not given here
Protocol: Solvent Retention Capacity (SRC) serves as a practical test to monitor the function of specific flour components, such as the amount of damaged starch. The SRC assay method used was adapted and modified from AACC method 56-10, according to the following procedure:
• 50 ml centrifuge tubes+caps • 5% weight sodium carbonate solvent • Centrifuge (IEC, Centra GP8, 269 rotor, 2130 rpm) Procedure: • 1. Weigh 50 ml centrifuge tubes+caps (for special tubes weight O-ring seals) • 2. Weigh and add 5.00 g of bran-germ mixture to each tube (determine moisture content of mixture) • 3. Add 25 g of solvent (pre-weighed solvent aliquots) to each tube • 4. Allow it to hydrate for 20 min, shaking every 5 min (5, 10, 15, 20) • 5. Centrifuge for 15 min at 1000×g • 6. Decant supernatant and drain 5 min at 45° angle and 5 min at 90° angle. • 7. Put cap back and weigh pellet

[7] = after 30 days at 92 F, flour at about pH=4.5
[8] = lactic acid 3000 ppm, green tea extract 7000 ppm

Lipase activity ([1]; 40 min acid pre-treat 0.005 g/15 ml, 0.006 M, pH 2.8): 5.33 Units/μl
SMILES: CC(=O)O [Acetic acid, acetic acid]

SMILES: CC(O)C(=O)O (stereo not shown) [Lactic acid, lactic acid]
Cookie dough pH [2]: 7.65 and 7.52
Flour fatty acid formation ([3]; after 28 days at 92 F, about 9000 ppm lactic acid concentration and 4.5 pH): 1425 ppm
Flour fatty acid formation [3, 7]: 1382 ppm
Whole grain flour fatty acid content after storage ([3]; storage at 82 F, compared to control, Example 9): reduced compared to control
FFA (ppm) 3 week at 28 C. ([3]; whole grain flour, lactic acid 3000 ppm, green tea extract 7000 ppm (dry weight/initial kernel weight)): 2628 ppm and 2364 ppm
break flour pH ([4]; break flour fraction before recombining): 4.88
fine bran pH ([4]; fine bran fraction before recombining): 4.52
Flour pH [4, 8]: 5.54 and 5.56
Flour pH ([4]; soft red whole grain flour from treated wheat): 5.6
coarse bran moisture [5]: 14.49
flour strength as measured by lactic acid SRC value ([6]; as a function of temper time and amount of lactic acid added, FIG. 7): did not decrease flour strength
Flour SRC Lactic acid [6, 8]: 69.11 and 69.40
Flour SRC Sodium carbonate [6, 8]: 76.58 and 78.67
Flour SRC Water [6, 8]: 59.53 and 60.35
Flour SRC sucrose [6, 8]: 95.77 and 94.23
Lipase activity ([1]; 40 min acid pre-treat 0.02 g/15 ml, 0.015 M, pH 2.85): 6.45 Units/μl
Lipase activity ([1]; 40 min acid pre-treat 0.04 g/15 ml, 0.030 M, pH 2.57): 5.8 Units/μl
Lipase activity ([1]; 40 min acid pre-treat 0.08 g/15 ml, 0.059 M, pH 2.48): 4.15 Units/μl

SMILES: O=P(O)(O)O [phosphoric acid]
Flour fatty acid formation [3, 7]: 1592 ppm

SMILES: Cl [hydrochloric acid]
Flour fatty acid formation [3, 7]: 746 ppm
Lipase activity ([1]; 40 min acid pre-treat 0.02 g/15 ml, 0.036 M, pH 1.5): 0 Units/μl
